Experimental data: article PMC3500847 (ChemMedChem, 2012)
Bridge positions count the residues as written; N and C are the ends. Square brackets hold non-standard residues; d marks the D form. Peptide text beside a SMILES is read from it. d(aThr) = C[C@@H](O)[C@@H](N)C(=O)O; 12Ado = NCCCCCCCCCCCC(=O)O

Tests used:
[1] = tested on: S. aureus ATCC 33591 (MRSA); type: cell-based, Staphylococcus aureus
[2] = tested on: S. aureus ATCC 700699 (Mu50, VRSA); type: cell-based, Staphylococcus aureus
[3] = tested on: human liver embryonic cell line WRL 68; type: cell-based
[4] = tested on: HepG2 cancer cell line; type: cell-based, human
[5] = tested on: variety of fungi, including Candida albicans and Cryptococcus neoformans, and Gram-positive bacteria such as S. aureus; details: range over fungi and Gram-positive bacteria; cited from earlier work

| Compound | MIC [1] [µg/mL] | MIC [2] [µg/mL] | cytotoxicity [3] | cytotoxicity [4] | MICs [5] [µg/mL] |
| --- | --- | --- | --- | --- | --- |
| CC(=O)N[C@@H]1C(=O)N[C@H](C(C)C)C(=O)N[C@@H](C(C)C)C(=O)N[C@H]([C@H](C)O)C(=O)N[C@H](CC(N)=O)C(=O)N[C@H](C)C(=O)O[C@@H]1C [compound 1] (Ac-T[dV]V[dT][dN][dA]; ester 1-C) | >128 | >128 | did not show appreciable cytotoxicity | did not show appreciable cytotoxicity |  |
| CC(=O)N[C@@H]1C(=O)N[C@H](C(C)C)C(=O)N[C@@H](C(C)C)C(=O)N[C@H]([C@@H](C)O)C(=O)N[C@H](CC(N)=O)C(=O)N[C@H](C)C(=O)O[C@@H]1C [compound 2] (Ac-T[dV]V[d(aThr)][dN][dA]; ester 1-C) | >128 | >128 |  |  |  |
| CC(C)[C@@H]1NC(=O)[C@@H](C(C)C)NC(=O)[C@@H](NC(=O)CCCCCCCCCCCN)[C@@H](C)OC(=O)[C@@H](C)NC(=O)[C@@H](CC(N)=O)NC(=O)[C@@H]([C@H](C)O)NC1=O [compound 3] (H-[12Ado]T[dV]V[dT][dN][dA]; ester 2-C) | >128 | >128 |  |  |  |
| CC(C)[C@@H]1NC(=O)[C@@H](C(C)C)NC(=O)[C@@H](NC(=O)CCCCCCCCCCCN)[C@@H](C)OC(=O)[C@@H](C)NC(=O)[C@@H](CC(N)=O)NC(=O)[C@@H]([C@@H](C)O)NC1=O [compound 4] (H-[12Ado]T[dV]V[d(aThr)][dN][dA]; ester 2-C) | >128 | >128 |  |  |  |
| fusaricidin A |  |  |  |  | 0.78 to 3.12 |
